Assay results published in US4665019A, “Method for measuring the plasma levels of an inhibitor of (Na^+ +K^ +” (University of Maryland, priority 1983, dated 1987).

Experiments:
[1] = target: T1, canine kidney (Na^+ +K^+)ATPase (Canis lupus familiaris, UniProt P50997); experiment: (Na+ +K+)ATPase activity assay coupled to NADH oxidation (A340); type: biochemical, canine (dog); details: for time course of inhibition of (Na^+ +K^+)ATPase activity: FIG. 1a/1b, continuous recording of A340, 37° C.
T1 construct: suspending canine kidney (Na^+ +K^+)ATPase; purchased Sigma Chemical; host or cells: canine kidney (tissue-derived membrane preparation)
Description: The (Na^+ +K^+)ATPase preparation employed in the assay of this example comprised unsealed membrane sheets as described in Jorgensen, P. L. Biochim. Biophys. Acta 356: 36-52 (1974). Thus, it was not able to distinguish between an external and an internal site of action for the inhibitor.
The ATPase assay solution employed contained 400 μl of an ATPase cocktail and 580 μl of water. The ATPase cocktail was such that the final reaction conditions were (in 1.0 ml) as follows: 20 mM KCl; 100 mM NaCl; 4.5 mM MgSO4; 5 mM EGTA; 3 mM Na2 ATP; 1.2 mM tricyclohexylammonium phosphoenolpyruvate (PEP), 0.25 NADH, 40 mM trimethylaminoethanesulphonic acid (TES)-Tris, pH 7.4; 1.2 units lactate dehydrogenase (LDH); and 1.2 units pyruvate kinase (PK), (ATP, PEP, NADH, LDH and PK were purchased from Boehringer Mannheim Biochemicals; LDG and PK enzymes were obtained as glycerol suspensions.)
The (Na^+ +K^+)ATPase suspension was prepared for assay by suspending canine kidney (Na^+ +K^+)ATPase (obtained from Sigma Chemical having a specific activity of 5-6 μmol per min per mg protein and containing a ouabain-insensitive Mg^2+ -ATPase activity which was less than 2% of the total steady-state ATPase activity) in 500 μM Na4 EDTA, 10 mM (TES)-Tris pH 7.4, at a protein concentration of 150 μg/ml. The resuspended enzyme was incubated at 25° C. for 3 hours and then stored on ice.
The assay was initiated by the rapid addition of 20 μl of ATPase suspension (3 μg protein) to 980 μl of ATPase assay solution in a 1.0 ml cuvette at 37° C. The decrease in ultraviolet light absorbance at 340 nm (A340) due to NADH oxidation (ε=6.22×10^3 1 mol^-1 cm^-1) was continuously recorded using a Beckman Model 25 UV-VIS recording spectrophotometer.
FIG. 1a illustrates ATPase inhibition by ouabain. […] The control contained an appropriate quantity of DMSO.
FIG. 1b illustrates ATPase inhibition by vanadate. […] The control contained in appropriate quantity of water. […]
Percent inhibition was calculated as: [formula]

[2] = system: ATP generating reaction system; experiment: Efficacy of the ATP generating reaction system (rates of NADH oxidation on addition of ADP); type: biochemical; details: at the concentrations shown in FIGS. 1a and 1b; addition of 10-50 μM ADP

| SMILES | time course of inhibition of (Na^+ +K^+)ATPase activity [1] | effect on the efficacy of the ATP generating reaction system [2] | Ki ([1]; from steady-state levels of (Na^+ +K^+)ATPase activity at various vanadate concentrations, 37° C.) [nM] |
| --- | --- | --- | --- |
| C[C@@H]1O[C@@H](O[C@H]2C[C@@H](O)[C@]3(CO)[C@H]4[C@H](O)C[C@]5(C)[C@@H](C6=CC(=O)OC6)CC[C@]5(O)[C@@H]4CC[C@]3(O)C2)[C@H](O)[C@H](O)[C@H]1O [ouabain] | no significant effect on the reaction for the first 30 seconds, and thereafter causes a progressive, dose-dependent increase in inhibition | Neither ouabain nor vanadate, at the concentrations shown in FIGS. 1a and 1b, had a significant effect |  |
| [Na+].[Na+].[Na+].[O]=[V]([O-])([O-])[O-] [vanadate, Na3 VO4] | the effect of vanadate was apparent in the first few seconds of the reaction | Neither ouabain nor vanadate, at the concentrations shown in FIGS. 1a and 1b, had a significant effect | 900 |
